Reference: PMC3199867, “Targeting surface nucleolin with multivalent HB-19 and related Nucant pseudopeptides results in distinct inhibitory mechanisms depending on the malignant tumor cell type” (BMC Cancer, 2011)

Columns and labels:
surface nucleolin = assay: HIV-1 LAI entry into HeLa-CD4-LTR-LacZ cells (β-galactosidase): function of surface nucleolin; format: cell-based, human; settings: 0.05-0.8 μM, β-galactosidase at 48 h post-infection
Source text: Surface nucleolin serves as a low affinity receptor implicated in the binding and entry of HIV-1 particles into permissive cells. Consequently, HB-19 treatment of cells prevents HIV binding to cells and thus HIV entry and infection. Here HIV-1 LAI entry was monitored in HeLa-CD4-LTR-LacZ cells containing the bacterial lacZ gene under the control of HIV-1 LTR. Virus entry and replication result in trans-activation of HIV-1 LTR by the viral Tat protein, leading to the expression of β-galactosidase. At 48 h post-infection, cell monolayers are lysed in a phosphate buffer containing Nonidet P-40 (Sigma) (1%; v ⁄ v) and assayed for β-galactosidase activity by measuring optical density at 570 nm.
Figure 2 HB-19 and related Nucant pseudopeptides antagonize surface nucleolin and trigger its down regulation. A. Multivalent pseudopeptides block the biological function of surface nucleolin for HIV entry. […] At 48 h post-infection, the β-galactosidase activity was measured in cell extracts directly to monitor HIV entry (Methods). The abscissa gives % Activity of surface nucleolin calculated from the optical density measurements at 570 nm. […] Cytoplasmic (containing cytoplasmic as well as surface nucleolin) and nuclear extracts were analyzed by immunoblotting using mAb D3 as described (Methods)(panels Surface/cytoplasmic NCL, Nuclear NCL). […]

HL60 = assay: Cell growth (viable cell number); format: cell-based, human; settings: N6 or N7 20 μM, viable cell number vs untreated control, mean of at least 2 independent experiments
Procedure: (§1) Human breast (MDA-MB-231, MDA-MB-435 [37]), prostate (LNCaP, from American Type Culture Collection, ATCC, Rockville, MD), and cervical (HeLa) epithelial cancer cells were grown in DMEM-glutamax medium (Gibco Invitrogen, Cergy-Pontoise, France) containing GlutaMAX™, 4.5 g/l glucose and supplemented with 10% heat-inactivated (56°C for 30 min) fetal bovine serum (FBS; Hyclone, Thermo Fisher Scientific, Inc). Human SW480 cells are derived from a grade 3-4 colon carcinoma, while the highly metastatic counterpart SW620 is established from the lymph node of a person. Both SW480 and SW620 cells (obtained from Francis Raul, IRCAD) are highly tumorigenic in nude mice. They were cultured in D-MEM, 10% FCS. The murine melanoma TIII cell line was obtained from Armelle Prévost-Blondel. Murine T29 lymphoma cells, obtained from Philippe Kastner (CNRS, Strasbourg), have been established from Ik^L/L tumors from mice carrying a hypomorphic mutation (Ik^L/L) in the Ikaros gene encoding a transcription factor that regulates lymphocyte differentiation, and acts also as a tumor suppressor in T lymphocytes. The T29 cells were cultured in RPMI medium containing 25 mM Hepes pH 7.6, 1 mM sodium pyruvate, and 10% FCS. Human leukemia cell lines, Jurkat (acute T cell leukemia), HuT 78 (cutaneous T lymphocyte), RAJI (Burkitt lymphoma), and HL60 (promyelocytic leukemia) were cultured in RPMI-1640 medium (Gibco) containing GlutaMAX™, and supplemented with 10% heat-inactivated FBS as described before. The wild-type Chinese hamster ovary cell line (CHO K1) was purchased from American Type Culture Collection (ATCC; Rockville, MD). The CHO LRP1-null cell line (CHO-13-5-1) was kindly provided by D. Strickland [47]. They were cultured in Ham's F12K medium. All cells were cultured with 10% (v/v) heat inactivated (56°C, 30 min) fetal bovine serum (FBS) (Roche Molecular Biochemicals, Indianapolis, IN) and 50 international units/mL penicillin-streptomycin (Invitrogen). Cell death was monitored conveniently by uptake of the trypan blue dye due to plasma membrane permeability of dying and/or dead cells.

HeLa = assay: Cell growth (viable cell number); format: cell-based, human; settings: N6 or N7 20 μM, viable cell number vs untreated control, mean of at least 2 independent experiments
Procedure: as §1

HuT 78 [1] = assay: Cell growth (viable cell number); format: cell-based, human; settings: N6 or N7 20 μM, viable cell number vs untreated control, mean of at least 2 independent experiments
Procedure: as §1

Jurkat = assay: Cell growth (viable cell number); format: cell-based, human; settings: N6 or N7 20 μM, viable cell number vs untreated control, mean of at least 2 independent experiments
Procedure: as §1

LNCaP = assay: Cell growth (viable cell number); format: cell-based, human; settings: N6 or N7 20 μM, viable cell number vs untreated control, mean of at least 2 independent experiments
Procedure: as §1

MDA-MB 231 = assay: Cell growth (viable cell number); format: cell-based, human; settings: N6 or N7 20 μM, viable cell number vs untreated control, mean of at least 2 independent experiments
Procedure: as §1

MDA-MB 435 = assay: Cell growth (viable cell number); format: cell-based, human; settings: N6 or N7 20 μM, viable cell number vs untreated control, mean of at least 2 independent experiments
Procedure: as §1

RAJI = assay: Cell growth (viable cell number); format: cell-based, human; settings: N6 or N7 20 μM, viable cell number vs untreated control, mean of at least 2 independent experiments
Procedure: as §1

T29 = assay: Cell death (trypan blue uptake); format: cell-based, murine; settings: for % Cell death After 24 hours: T29, freshly passaged, N6 or N7 20 μM, mean of at least 2 independent experiments; for IC50: T29 cells, 0-20 μM, read-out: Cell death: IC50 24 hours post-passage
Procedure: as §1

HuT 78 [2] = assay: Cell death (trypan blue uptake); format: cell-based, human; settings: HuT 78, freshly passaged; N6 or N7 20 μM; trypan blue uptake; mean of at least 2 independent experiments
Procedure: as §1, with “cells. […]” for “cells.”

Substance	inhibitory activity on HIV-1 entry, fold more active compared to the pentavalent constructs N3 and HB-19 (surface nucleolin)	% Growth inhibition After 3 days (HL60) [%]	% Growth inhibition After 3 days (HeLa) [%]	% Growth inhibition After 3 days (HuT 78 [1]) [%]	% Growth inhibition After 3 days (Jurkat) [%]	% Growth inhibition After 3 days (LNCaP) [%]	% Growth inhibition After 3 days (MDA-MB 231) [%]	% Growth inhibition After 3 days (MDA-MB 435) [%]	% Growth inhibition After 3 days (RAJI) [%]	% Cell death After 24 hours (T29) [%]	IC50 (T29) [µM]	% Cell death After 24 hours (HuT 78 [2]) [%]
Ac-KAKPGKAKPGKAKPG-NH2 [Nucant N7, Presents hexavalently the pseudo-tripeptide Lysψ(CH2N)-Pro-Arg coupled to a similar template as in HB-19]	at least 2 fold	65	46	62	80	88	92	58	75	45	20	44
Ac-Lys-Aib-Gly-Lys-Aib-Gly-Lys-Aib-Gly-Lys-Aib-Gly-Lys-Aib-Gly-Lys-Aib-Gly-CONH2 [Nucant N6, Presents hexavalently the pseudo-tripeptide Lysψ(CH2N)-Pro-Arg coupled to the polypeptide template containing Aib]	at least 2 fold	65	46	62	80	88	92	58	75	45	20	44
